Structures can show the parent of a compound that is named as a salt.
Biological target: T1, Recombinant human IKKβ (residues 1-737) (Homo sapiens, UniProt O14920)
T1 construct: Recombinant human IKKβ (residues 1-737); GST (C); made in house
T1 sequence (O14920 1-737): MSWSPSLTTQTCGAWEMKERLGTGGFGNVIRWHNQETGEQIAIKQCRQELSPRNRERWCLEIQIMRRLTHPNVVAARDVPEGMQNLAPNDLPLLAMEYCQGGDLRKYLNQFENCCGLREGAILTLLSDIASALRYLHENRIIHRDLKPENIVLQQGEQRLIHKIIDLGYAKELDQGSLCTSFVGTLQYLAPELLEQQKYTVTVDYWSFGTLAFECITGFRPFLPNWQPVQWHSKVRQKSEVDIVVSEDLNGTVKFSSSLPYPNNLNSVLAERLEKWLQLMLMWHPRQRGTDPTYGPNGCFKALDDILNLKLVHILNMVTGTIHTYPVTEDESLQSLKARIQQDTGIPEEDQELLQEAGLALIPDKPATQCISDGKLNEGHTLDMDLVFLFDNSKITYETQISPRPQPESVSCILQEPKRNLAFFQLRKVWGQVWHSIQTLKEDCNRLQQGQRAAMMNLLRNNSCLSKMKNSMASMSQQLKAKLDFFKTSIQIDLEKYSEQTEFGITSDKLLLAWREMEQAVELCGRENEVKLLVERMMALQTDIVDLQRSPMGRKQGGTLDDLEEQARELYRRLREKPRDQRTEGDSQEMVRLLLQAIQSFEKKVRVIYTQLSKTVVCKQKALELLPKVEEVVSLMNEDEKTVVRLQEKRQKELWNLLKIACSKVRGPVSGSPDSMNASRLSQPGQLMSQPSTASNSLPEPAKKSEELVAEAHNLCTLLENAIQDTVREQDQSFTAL
Assay: IKK2 assay (TR-FRET)
Assay type: biochemical
Settings: ATP 1 μM final, read-out: pIC50 against IKK2 (converted)
Description: Recombinant human IKKβ (residues 1-737) was expressed in baculovirus as a C-terminal GST-tagged fusion protein, and its activity was assessed using a time-resolved fluorescence resonance energy transfer (TR-FRET) assay. Briefly, IKK2 (0.5 nM-5 nM final) diluted in assay buffer (50 mM HEPES, 10 mM MgCl2, 1 mM CHAPS pH 7.4 with 1 mM DTT and 0.01% w/v BSA) was added to wells containing various concentrations of compound or DMSO vehicle (1.7% final). The reaction was initiated by the addition of GST-IB substrate (25 nM final)/ATP (1 μM final), in a total volume of 6 μl. The reaction was incubated for 15 minutes at room temperature, then terminated by the addition of 3 μl of detection reagent in buffer containing 50 mM EDTA (100 mM HEPES pH 7.4, 150 mM NaCl, 50 mM EDTA and 0.01% w/v BSA) containing antiphosphoserine-IB-32/36 monoclonal antibody 12C2 (Cell Signalling Technology, Beverly Mass., USA) labelled with W-1024 europium chelate (Wallac OY, Turku, Finland), and an APC-labelled anti-GST antibody (Prozyme, San Leandro, Calif., USA) was added and the reaction was further incubated for 60 minutes at room temperature. The degree of phosphorylation of GST-IB was measured using a BMG Rubystar plate reader (BMG Labtech, Aylesbury, UK) as a ratio of specific 665 nm energy transfer signal to reference europium 620 nm signal.

IC50, ≤ 10 µM:
CCS(=O)(=O)N1CCC(c2c[nH]c3c(C(N)=O)cc(-c4cccc(CN)c4)cc23)CC1 [Example 14, 5-[3-(aminomethyl)phenyl]-3-[1-(ethylsulfonyl)-4-piperidinyl]-1H-indole-7-carboxamide]
CCS(=O)(=O)N1CCC(c2c[nH]c3c(C(N)=O)cc(-c4cc(C#N)cc(CNCC(F)(F)F)c4)cc23)CC1 [Example 41, 5-(3-cyano-5-{[(2,2,2-trifluoroethyl)amino]methyl}phenyl)-3-[1-(ethylsulfonyl)-4-piperidinyl]-1H-indole-7-carboxamide trifluoroacetate]
CCS(=O)(=O)N1CCC(c2c[nH]c3c(C(N)=O)cc(-c4cc(CN(C)C)c(OC)c(OC)c4)cc23)CC1 [Example 51, 5-[3-[(dimethylamino)methyl]-4,5-bis(methyloxy)phenyl]-3-[1-(ethylsulfonyl)-4-piperidinyl]-1H-indole-7-carboxamide]
CCS(=O)(=O)N1CCC(c2c[nH]c3c(C(N)=O)cc(-c4cc(CNC(C)C)c(OC)c(OC)c4)cc23)CC1 [Example 53, 3-[1-(ethylsulfonyl)-4-piperidinyl]-5-[3-{[(1-methylethyl)amino]methyl}-4,5-bis(methyloxy)phenyl]-1H-indole-7-carboxamide]
CCS(=O)(=O)N1CCC(c2c[nH]c3c(C(N)=O)cc(-c4cc(CNC)c(OC)c(OC)c4)cc23)CC1 [Example 54]
CCS(=O)(=O)N1CCC(c2c[nH]c3c(C(N)=O)cc(-c4cc(CNCC(C)(C)C)c(OC)c(OC)c4)cc23)CC1 [Example 55, 5-[3-{[(2,2-dimethylpropyl)amino]methyl}-4,5-bis(methyloxy)phenyl]-3-[1-(ethylsulfonyl)-4-piperidinyl]-1H-indole-7-carboxamide]
CCS(=O)(=O)N1CCC(c2c[nH]c3c(C(N)=O)cc(-c4cc(CN(C)CCO)c(OC)c(OC)c4)cc23)CC1 [Example 56, 3-[1-(ethylsulfonyl)-4-piperidinyl]-5-[3-{[(2-hydroxyethyl)(methyl)amino]methyl}-4,5-bis(methyloxy)phenyl]-1H-indole-7-carboxamide]
CCS(=O)(=O)N1CCC(c2c[nH]c3c(C(N)=O)cc(-c4cc(CN5CCCC5)c(OC)c(OC)c4)cc23)CC1 [Example 57, 5-[3,4-bis(methyloxy)-5-(1-pyrrolidinylmethyl)phenyl]-3-[1-(ethylsulfonyl)-4-piperidinyl]-1H-indole-7-carboxamide]
CCS(=O)(=O)N1CCC(c2c[nH]c3c(C(N)=O)cc(-c4csc(CN5CCCC5CC(C)C)c4)cc23)CC1 (stereo not drawn) [Example 93, 3-[1-(ethylsulfonyl)-4-piperidinyl]-5-(5-{[2-(2-methylpropyl)-1-pyrrolidinyl]methyl}-3-thienyl)-1H-indole-7-carboxamide trifluoroacetate]
CCS(=O)(=O)N1CCC(c2c[nH]c3c(C(N)=O)cc(-c4ccc(N5CCNCC5)nc4)cc23)CC1 [Example 135, 3-[1-(ethylsulfonyl)-4-piperidinyl]-5-[6-(1-piperazinyl)-3-pyridinyl]-1H-indole-7-carboxamide trifluoroacetate]
CCC(CC)NCc1ccc(-c2cc(C(N)=O)c3[nH]cc(C4CCN(S(=O)(=O)CC)CC4)c3c2)cc1 [Example 142, 5-(4-{[(1-ethylpropyl)amino]methyl}phenyl)-3-[1-(ethylsulfonyl)-4-piperidinyl]-1H-indole-7-carboxamide]
CCNCc1ccc(-c2cc(C(N)=O)c3[nH]cc(C4CCN(S(=O)(=O)CC)CC4)c3c2)cc1 [Example 145, 5-{4-[(ethylamino)methyl]phenyl}-3-[1-(ethylsulfonyl)-4-piperidinyl]-1H-indole-7-carboxamide]
CCS(=O)(=O)N1CCC(c2c[nH]c3c(C(N)=O)cc(-c4ccc(CN5CCCC5)cc4)cc23)CC1 [Example 149, 3-[1-(ethylsulfonyl)-4-piperidinyl]-5-[4-(1-pyrrolidinylmethyl)phenyl]-1H-indole-7-carboxamide trifluoroacetate]
CCS(=O)(=O)N1CCC(c2c[nH]c3c(C(N)=O)cc(-c4ccc(CN[C@@H](C)CO)cc4)cc23)CC1 [Example 150, 3-[1-(ethylsulfonyl)-4-piperidinyl]-5-[4-({[(1S)-2-hydroxy-1-methylethyl]amino}methyl)phenyl]-1H-indole-7-carboxamide trifluoroacetate]
CCS(=O)(=O)N1CCC(c2c[nH]c3c(C(N)=O)cc(-c4ccc(CNC[C@@H](C)O)cc4)cc23)CC1 [Example 152, 3-[1-(ethylsulfonyl)-4-piperidinyl]-5-[4-({[(2R)-2-hydroxypropyl]amino}methyl)phenyl]-1H-indole-7-carboxamide trifluoroacetate]
CCS(=O)(=O)N1CCC(c2c[nH]c3c(C(N)=O)cc(-c4ccc(CN[C@H](C)C(C)C)s4)cc23)CC1 [Example 183, 5-[5-({[(1R)-1,2-dimethylpropyl]amino}methyl)-2-thienyl]-3-[1-(ethylsulfonyl)-4-piperidinyl]-1H-indole-7-carboxamide]
CCS(=O)(=O)N1CCC(c2c[nH]c3c(C(N)=O)cc(-c4ccc(CNCCC(C)(C)C)s4)cc23)CC1 [Example 199, 5-(5-{[(3,3-dimethylbutyl)amino]methyl}-2-thienyl)-3-[1-(ethylsulfonyl)-4-piperidinyl]-1H-indole-7-carboxamide]
CCN(C)c1ccc(-c2cc(C(N)=O)c3[nH]cc(C4CCN(S(=O)(=O)CC)CC4)c3c2)cn1 [Example 225, 5-{6-[ethyl(methyl)amino]-3-pyridinyl}-3-[1-(ethylsulfonyl)-4-piperidinyl]-1H-indole-7-carboxamide trifluoroacetate]
CCS(=O)(=O)N1CCC(c2c[nH]c3c(C(N)=O)cc(-c4ccc(N(C)C)nc4)cc23)CC1 [Example 226, 5-[6-(dimethylamino)-3-pyridinyl]-3-[1-(ethylsulfonyl)-4-piperidinyl]-1H-indole-7-carboxamide trifluoroacetate]
CCS(=O)(=O)N1CCC(c2c[nH]c3c(C(N)=O)cc(-c4ccc(NC(C)C)nc4)cc23)CC1 [Example 228, 3-[1-(ethylsulfonyl)-4-piperidinyl]-5-{6-[(1-methylethyl)amino]-3-pyridinyl}-1H-indole-7-carboxamide trifluoroacetate]
CCS(=O)(=O)N1CCC(c2c[nH]c3c(C(N)=O)cc(-c4ccc(N5CCOCC5)nc4)cc23)CC1 [Example 229, 3-[1-(ethylsulfonyl)-4-piperidinyl]-5-[6-(4-morpholinyl)-3-pyridinyl]-1H-indole-7-carboxamide]
CCS(=O)(=O)N1CCC(c2c[nH]c3c(C(N)=O)cc(-c4cnn(CCN(C)C)c4)cc23)CC1 [Example 252, 5-{1-[2-(dimethylamino)ethyl]-1H-pyrazol-4-yl}-3-[1-(ethylsulfonyl)-4-piperidinyl]-1H-indole-7-carboxamide]
CCS(=O)(=O)N1CCC(c2c[nH]c3c(C(N)=O)cc(-c4ccc(OC)c(CN(C)C)c4)cc23)CC1 [Example 263, 5-[3-[(dimethylamino)methyl]-4-(methyloxy)phenyl]-3-[1-(ethylsulfonyl)-4-piperidinyl]-1H-indole-7-carboxamide trifluoroacetate]
CCS(=O)(=O)N1CCC(c2c[nH]c3c(C(N)=O)cc(-c4ccc(OC)c(CN5CCOCC5)c4)cc23)CC1 [Example 264, 3-[1-(ethylsulfonyl)-4-piperidinyl]-5-[4-(methyloxy)-3-(4-morpholinylmethyl)phenyl]-1H-indole-7-carboxamide trifluoroacetate]
